Measured values reported in patent US8546421B1, “Oncogenic-RAS-signal dependent lethal compounds” (The Trustees of Columbia University in the City of New York, priority 2007, dated 2013).
In brackets after ≈: the same amount, converted by molar mass.

Legend:
[1] = tested on: BJ-TERT/LT/ST/RAS^V12 cells; assay: Alamar blue growth inhibition in dilution series; type: cell-based, human; conditions: Homo sapiens, alamar blue
[2] = tested on: BJ-TERT/LT/ST/RAS^V12 cells; assay: Counter screening with iron chelators; type: cell-based, human; conditions: DFOM and three additional iron-binding compounds; 24 hours
Method: Cells were treated with iron chelators by transferring 4 μL of 1 mM deferoxamine mesylate (Calbiochem, cat.#252750), 500 μM compound 1a (Chembridge, cat.#5175092), 1 mM compound 2 (Ryan Scientific, cat.#LT01784723), or 100 μM compound 311 (Chembridge, cat.#5135701) in growth media to the assay plate. Then, 4 μL was transferred from the ‘10× lethal plate’ (described in ‘counter screening with biologically active compounds’) to the assay plate in order to induce cell death. Assay plates were incubated for 24 hours and alamar blue was added to the plates at a final concentration of 10%.

[3] = tested on: A549, Calu-1, PaCa, and HCT116 cells; assay: Alamar blue assay in KRAS-mutation-harboring cancer cells; type: cell-based, human
Method: A549, Calu-1, HCT116 and MIA PaCa-2 cell lines have an oncogenic mutation in the KRAS gene. Compounds which tested positive in the oncogenic HRAS primary screen were also tested for their selectivity against oncogenic KRAS which is more commonly mutated in human cancers.

[4] = tested on: CCRF-CEM; assay: NCI60 anti-cancer screening
[5] = tested on: K-562; assay: NCI60 anti-cancer screening
[6] = tested on: MOLT-4; assay: NCI60 anti-cancer screening
[7] = tested on: SR; assay: NCI60 anti-cancer screening
[8] = tested on: NCI-H23; assay: NCI60 anti-cancer screening
[9] = tested on: COLO 205; assay: NCI60 anti-cancer screening
[10] = tested on: SF-268; assay: NCI60 anti-cancer screening
[11] = tested on: SNB-75; assay: NCI60 anti-cancer screening
[12] = tested on: LOX IMVI; assay: NCI60 anti-cancer screening
[13] = tested on: MALME-3M; assay: NCI60 anti-cancer screening
[14] = tested on: SK-MEL-28; assay: NCI60 anti-cancer screening
[15] = tested on: SK-MEL-5; assay: NCI60 anti-cancer screening
[16] = tested on: UACC-257; assay: NCI60 anti-cancer screening
[17] = tested on: OVCAR-4; assay: NCI60 anti-cancer screening
[18] = tested on: OVCAR-8; assay: NCI60 anti-cancer screening
[19] = tested on: 786-0; assay: NCI60 anti-cancer screening
[20] = tested on: A498; assay: NCI60 anti-cancer screening
[21] = tested on: ACHN; assay: NCI60 anti-cancer screening
[22] = tested on: TK-10; assay: NCI60 anti-cancer screening
[23] = tested on: DU-145; assay: NCI60 anti-cancer screening
[24] = tested on: MDA-MB-231/ATCC; assay: NCI60 anti-cancer screening
[25] = tested on: BT-549; assay: NCI60 anti-cancer screening
[26] = tested on: T-47D; assay: NCI60 anti-cancer screening

Compound: C=C1CCC2C(C)(C)CCC[C@]2(C)C1CC/C(C)=C\CC/C(C)=N/NC(N)=S (stereo partly drawn) [Compound 36]
- IC90 [1]: 1 µg/mL (≈ 2.48 µM)
- effect of iron chelators on compound activity / induced cell death [2]: significantly inhibited
- activity in KRAS-mutation-harboring cancer cells (in words) [3]: active
- GI50 ([4]; Homo sapiens): 0.165 µM
- CC50 ([4]; Homo sapiens, read-out: LC 50%): 5.57 µM
- GI 100% ([4]; Leukemia): 0.705 µM
- GI50 ([5]; Homo sapiens, K562): 0.267 µM
- CC50 ([5]; Homo sapiens, K562, read-out: LC 50%): 3.51 µM
- GI 100% ([5]; K-562, Leukemia): 1.08 µM
- GI50 ([6]; Homo sapiens, MOLT-4): 0.0773 µM
- CC50 ([6]; Homo sapiens, MOLT-4, read-out: LC 50%): 7.39 µM
- GI 100% ([6]; MOLT-4, Leukemia): 1.1 µM
- GI50 ([7]; Homo sapiens): 1.32 µM
- CC50 ([7]; Homo sapiens, read-out: LC 50%): 8.78 µM
- GI 100% ([7]; Leukemia): 3.4 µM
- GI50 ([8]; Homo sapiens, NCI-H23): 0.44 µM
- CC50 ([8]; Homo sapiens, NCI-H23, read-out: LC 50%): 4.23 µM
- GI 100% ([8]; NCI-H23, Non-small cell lung carcinoma): 1.65 µM
- GI 100% ([9]; COLO 205, Colon Cancer): 0.451 µM
- GI50 ([9]; Homo sapiens, COLO 205): 0.184 µM
- CC50 ([9]; Homo sapiens, COLO 205, read-out: LC 50%): 1.46 µM
- GI50 ([10]; Homo sapiens, SF-268): 1.09 µM
- CC50 ([10]; Homo sapiens, SF-268, read-out: LC 50%): 5.74 µM
- GI 100% ([10]; SF-268, CNS Cancer): 2.5 µM
- GI50 ([11]; Homo sapiens, SNB-75): 0.372 µM
- CC50 ([11]; Homo sapiens, SNB-75, read-out: LC 50%): 4.3 µM
- GI 100% ([11]; SNB-75, CNS Cancer): 1.26 µM
- GI50 ([12]; Homo sapiens): 0.203 µM
- CC50 ([12]; Homo sapiens, read-out: LC 50%): 1.32 µM
- GI 100% ([12]; Melanoma): 0.478 µM
- GI50 ([13]; Homo sapiens, Malme-3M): 0.55 µM
- CC50 ([13]; Homo sapiens, Malme-3M, read-out: LC 50%): 4.57 µM
- GI 100% ([13]; MALME-3M, Melanoma): 1.83 µM
- GI50 ([14]; Homo sapiens, SK-MEL-28): 0.239 µM
- CC50 ([14]; Homo sapiens, SK-MEL-28, read-out: LC 50%): 2.07 µM
- GI 100% ([14]; SK-MEL-28, Melanoma): 0.592 µM
- GI50 ([15]; Homo sapiens, SK-MEL-5): 0.209 µM
- CC50 ([15]; Homo sapiens, SK-MEL-5, read-out: LC 50%): 3.05 µM
- GI 100% ([15]; SK-MEL-5, Melanoma): 0.898 µM
- GI50 ([16]; Homo sapiens, UACC-257): 1.26 µM
- CC50 ([16]; Homo sapiens, UACC-257, read-out: LC 50%): 6.99 µM
- GI 100% ([16]; UACC-257, Melanoma): 2.97 µM
- GI50 ([17]; Homo sapiens, OVCAR-4): 0.147 µM
- CC50 ([17]; Homo sapiens, OVCAR-4, read-out: LC 50%): 1.31 µM
- GI 100% ([17]; OVCAR-4, Ovarian Cancer): 0.405 µM
- GI50 ([18]; Homo sapiens, OVCAR-8): 1.16 µM
- CC50 ([18]; Homo sapiens, OVCAR-8, read-out: LC 50%): 7.48 µM
- GI 100% ([18]; OVCAR-8, Ovarian Cancer): 2.94 µM
- GI 100% ([19]; 786-0, Renal Cancer): 0.907 µM
- GI50 ([19]; Homo sapiens, 786-0): 0.252 µM
- CC50 ([19]; Homo sapiens, 786-0, read-out: LC 50%): 3.02 µM
- GI 100% ([20]; A498, Renal Cancer): 1.29 µM
- GI50 ([20]; Homo sapiens, A498): 0.268 µM
- CC50 ([20]; Homo sapiens, A498, read-out: LC 50%): 3.85 µM
- GI50 ([21]; Homo sapiens): 0.366 µM
- CC50 ([21]; Homo sapiens, read-out: LC 50%): 3.78 µM
- GI 100% ([21]; Renal Cancer): 1.43 µM
- GI50 ([22]; Homo sapiens, TK-10): 0.296 µM
- CC50 ([22]; Homo sapiens, TK-10, read-out: LC 50%): 3.47 µM
- GI 100% ([22]; TK-10, Renal Cancer): 1.08 µM
- GI 100% ([23]; DU-145, Prostate Cancer): 2.35 µM
- GI50 ([23]; Homo sapiens, DU-145): 1.14 µM
- CC50 ([23]; Homo sapiens, DU-145, read-out: LC 50%): 4.84 µM
- GI50 ([24]; Homo sapiens, MDA-MB-231): 0.341 µM
- CC50 ([24]; Homo sapiens, MDA-MB-231, read-out: LC 50%): 3.27 µM
- GI 100% ([24]; MDA-MB-231/ATCC, Breast Cancer): 1.36 µM
- GI 100% ([25]; BT-549, Breast Cancer): 1.3 µM
- GI50 ([25]; Homo sapiens, BT-549): 0.302 µM
- CC50 ([25]; Homo sapiens, BT-549, read-out: LC 50%): 4.07 µM
- GI50 ([26]; Homo sapiens, T47D): 0.701 µM
- CC50 ([26]; Homo sapiens, T47D, read-out: LC 50%): > 10 µM
- GI 100% ([26]; T-47D, Breast Cancer): 3.21 µM
